# Where two headings read alike, the source gives them in different places.
# Legend:
# [1] = test system: 2019 novel coronavirus (SARS-CoV-2); assay: microbe, parasite or virus in culture; format: cell-based; details: for inhibition at 5 µM: read-out: Inhibition Rate (5 μM); for inhibition at 10 µM: read-out: Inhibition Rate (10 μM)
# [2] = test system: porcine epidemic diarrhea virus (PEDV); assay: Anti-porcine epidemic diarrhea virus (PEDV) activity test in Vero cells, fluorescence quantitative PCR; format: cell-based; details: 36 h
# [3] = test system: dengue fever virus (DENV); assay: Dengue virus plaque reduction test in Vero cells; format: cell-based; details: for inhibition at 5 µM: Dengue virus, read-out: DENV (Vero) 5 μM (inhibition rate), 5 μM, plaque reduction
# [4] = in vitro; details: human
# [5] = test system: respiratory syncytial virus (RSV); assay: Cytopathic effect (CPE) assay, RSV in HEp-2; format: cell-based; details: human respiratory syncytial virus, HEp-2 cells
# [6] = molecular target: RNA-dependent RNA polymerase (RdRp) of 2019 novel coronavirus (SARS-CoV-2) (Severe acute respiratory syndrome coronavirus 2 (2019-nCoV) (SARS-CoV-2), UniProt P0DTD1); assay: Inhibition of RdRp of novel coronavirus, fluorescence method; format: biochemical; details: for inhibition of the activity of RdRp (in words): RdRp of novel coronavirus
# Procedure: According to the method reported in the literature (Virus Genes, 2015, 50:498-504), the inhibitory activity of the compound of the invention on RNA-dependent RNA polymerase (RdRp) of 2019 novel coronavirus (SARS-CoV-2) was determined using the fluorescence method: after the solution of the novel coronavirus RdRp, substrate, compound solution, buffer solution, etc were co-incubated for 1 hour, fluorescent DNA binding dye was added. 10 minutes later, data collection was carried out and the inhibitory activities of the compounds on RdRp were determined.
# [7] = test system: human coronavirus OC43 (HCoV OC43); assay: Cytopathic effect (CPE) assay, HCoV OC43 in Huh7; format: cell-based; details: Betacoronavirus 1, OC43, Huh-7, Huh7 cells
# Procedure: The inhibitory effects of compounds on the replication of respiratory syncytial virus (RSV), human coronavirus OC43, influenza A virus, Zika virus (Zika) were tested using cytopathic effect (CPE) assay.
# Experimental cells were inoculated in 96-well cell culture plate at a certain cell density, and cultured in an incubator (5% CO2, 37° C.) overnight. Compounds and viruses were added on the second day. […] Then cell viability of each well was detected using Cell Titer-Glo or CCK-8. […] The cytotoxicity test method was the same as the corresponding antiviral test method without virus infection.
# The antiviral activity and cytotoxicity of the compounds are respectively indicated by the inhibition rate (%) of compounds on virus-induced cellular viral effects and cell viability (%). Calculating formulas are as follows:
# Inhibition rate (%)=(reading value of test well—average value of virus control)/(average value of cell control—average value of virus control)×100;
# EC50 and CC50 value are calculated by Prism software, and the inhibition curve fitting method is “log (inhibitor) vs. response—Variable slope”.
# [8] = in vitro; details: human; remark: listed apart in the source
# [9] = Severe acute respiratory syndrome coronavirus 2, Vero C1008, 24 h, 5 μM, Vero E6 cells, 24 h p.i.
# [10] = Severe acute respiratory syndrome coronavirus 2, Vero C1008, 24 h, 10 μM, Vero E6 cells, 24 h p.i.
# [11] = Porcine epidemic diarrhea virus, Vero
# [12] = Severe acute respiratory syndrome coronavirus 2, Vero C1008, 24 h
# [13] = Severe acute respiratory syndrome coronavirus 2, Vero C1008, Vero E6 cells, 24 h p.i., read-out: EC50
structure (smiles),measurement,setting,value
N#C[C@@]1(c2cc(F)c3c(N)ncnn23)O[C@H](CO)[C@@H](O)[C@H]1O [Compound A1],inhibition at 5 µM,[1]; [9],80%
same,inhibition at 10 µM,[1]; [10],97%
N#C[C@@]1(c2cc(Cl)c3c(N)ncnn23)O[C@H](CO)[C@@H](O)[C@H]1O [Compound A2],inhibition at 10 µM,[1]; [10],< 50%
N#C[C@@]1(c2cc(I)c3c(N)ncnn23)O[C@H](CO)[C@@H](O)[C@H]1O [Compound A3],inhibition at 10 µM,[1]; [10],< 50%
N#C[C@@]1(c2ccc3c(=O)[nH]cnn23)O[C@H](CO)[C@@H](O)[C@H]1O [Compound A4],inhibition at 10 µM,[1]; [10],< 50%
[2H]C([2H])(O)[C@H]1O[C@@](C#N)(c2cc(F)c3c(N)ncnn23)[C@H](O)[C@@H]1O [Compound A12],inhibition at 5 µM,[1]; [9],> 98%
Nc1ncnn2c([C@]3(C4CC4)O[C@H](CO)[C@@H](O)[C@H]3O)ccc12 [Compound A28],EC50,[2]; [11],1100 nM
same,inhibition at 5 µM,[3],6%
CC(C)C(=O)OC[C@H]1O[C@@](C#N)(c2ccc3c(N)ncnn23)[C@H](O)[C@@H]1O [Compound A50],EC50,[2],2 nM
same,Inhibition Rate (5 μM),"[1]; 5 μM, Vero E6 cells, 24 h p.i.",99%
same,Inhibition Rate (10 μM),"[1]; 10 μM, Vero E6 cells, 24 h p.i.",99%
same,EC50,"[1]; Vero E6 cells, 24 h p.i., read-out: EC50",230 nM
CC(C)[C@H](N)C(=O)OC[C@H]1O[C@@](C#N)(c2ccc3c(N)ncnn23)[C@H](O)[C@@H]1O [Compound A52],inhibition at 5 µM,[1]; [9],> 98%
[2H]c1cc([C@]2(C#N)O[C@H](COC(=O)[C@@H](N)C(C)C)[C@@H](O)[C@H]2O)n2ncnc(N)c12 [Compound A72],inhibition at 5 µM,[1]; [9],99%
same,CC50,[4],> 10000 nM
same,EC50,[5],770 nM
[2H]C([2H])(OC(=O)C(C)C)[C@H]1O[C@@](C#N)(c2ccc3c(N)ncnn23)[C@H](O)[C@@H]1O [Compound A75],inhibition at 5 µM,[1]; [9],99%
same,CC50,[4],> 10000 nM
same,EC50,[5],490 nM
[2H]C([2H])(OC(=O)[C@@H](N)C(C)C)[C@H]1O[C@@](C#N)(c2ccc3c(N)ncnn23)[C@H](O)[C@@H]1O [Compound A77],inhibition at 5 µM,[1]; [9],> 98%
CCC(CC)COC(=O)[C@H](C)N[P@](=O)(OC[C@H]1O[C@@](C#N)(c2cc(F)c3c(N)ncnn23)[C@H](O)[C@@H]1O)Oc1ccccc1 [Compound A84],inhibition at 10 µM,[1]; [12],82%
N#C[C@@]1(c2cc(F)c3c(N)ncnn23)O[C@H](COP(=O)(O)OP(=O)(O)OP(=O)(O)O)[C@@H](O)[C@H]1O [Compound A102],IC50,[6]; RdRp of 2019 novel coronavirus,1000 to 10000 nM
same,inhibition of the activity of RdRp (in words),[6],significantly inhibit the activity of RdRp
[2H]c1cc([C@]2(C#N)O[C@H](COP(=O)(O)OP(=O)(O)OP(=O)(O)O)[C@@H](O)[C@H]2O)n2ncnc(N)c12 [Compound A106],inhibition of the activity of RdRp (in words),[6],significantly inhibit the activity of RdRp
[2H]C([2H])(OP(=O)(O)OP(=O)(O)OP(=O)(O)O)[C@H]1O[C@@](C#N)(c2ccc3c(N)ncnn23)[C@H](O)[C@@H]1O [Compound A107],inhibition of the activity of RdRp (in words),[6],significantly inhibit the activity of RdRp
N#C[C@@]1(c2ccc3c(N)ncnn23)O[C@H](COP(=O)(O)OP(=O)(O)OP(=O)(O)O)[C@@H](O)[C@H]1O [Compound A109],EC50,[1]; [12],580 nM
same,inhibition at 5 µM,[1]; [12],99%
same,inhibition at 10 µM,[1]; [12],99%
NC(=O)[C@@]1(c2ccc3c(N)ncnn23)O[C@H](CO)[C@@H](O)[C@H]1O [Compound A112],inhibition at 10 µM,[1]; [10],< 50%
CC(C)C(=O)OC[C@H]1O[C@@](C#N)(c2ccc3c(N)ncnn23)[C@H](OC(=O)C(C)C)[C@@H]1OC(=O)C(C)C [Compound A131],EC50,[2]; [11],< 100 nM
same,inhibition at 5 µM,[1]; [9],> 98%
[2H]c1cc([C@]2(C#N)O[C@H](CO)[C@@H](OC(=O)C(C)C)[C@H]2O)n2ncnc(N)c12 [Compound A144],EC50,[2]; [11],< 100 nM
same,EC50,[7],1880 nM
same,inhibition at 5 µM,[1]; [9],99%
same,EC50,[1]; [13],240 nM
same,CC50,[4],> 10000 nM
same,EC50,[5],470 nM
same,CC50,[8],> 10000 nM
[2H]C([2H])(O)[C@H]1O[C@@](C#N)(c2ccc3c(N)ncnn23)[C@H](O)[C@@H]1OC(=O)C(C)C [Compound A164],inhibition at 5 µM,[1]; [9],99%
same,EC50,[1]; [13],270 nM
[2H]C([2H])(OC(=O)C(C)C)[C@H]1O[C@@](C#N)(c2ccc3c(N)ncnn23)[C@H](OC(=O)C(C)C)[C@@H]1OC(=O)C(C)C [Compound A171],inhibition at 5 µM,[1]; [9],> 98%
[2H]c1cc([C@]2(C#N)O[C@H](C([2H])([2H])O)[C@@H](OC(=O)C(C)C)[C@H]2O)n2ncnc(N)c12 [Compound A173],CC50,[4],> 10000 nM
same,EC50,[5],460 nM
[2H]c1cc([C@]2(C#N)O[C@H](C([2H])([2H])OC(=O)C(C)C)[C@@H](O)[C@H]2O)n2ncnc(N)c12 [Compound A180],inhibition at 5 µM,[1]; [9],> 98%
[2H]c1cc([C@]2(C#N)O[C@H](C([2H])([2H])OC(=O)[C@@H](N)C(C)C)[C@@H](O)[C@H]2O)n2ncnc(N)c12 [Compound A181],inhibition at 5 µM,[1]; [9],> 98%
[2H]c1cc([C@]2(C#N)O[C@H](C([2H])([2H])O)[C@@H](OC(=O)C(C)C)[C@H]2O)n2ncnc(N)c12 [Compound A188],inhibition at 5 µM,[1]; [9],> 98%
[2H]c1cc([C@]2(C#N)O[C@H](C([2H])([2H])OC(=O)C(C)C)[C@@H](OC(=O)C(C)C)[C@H]2OC(=O)C(C)C)n2ncnc(N)c12 [Compound A196],inhibition at 5 µM,[1]; [9],> 98%
[2H]c1cc([C@]2(C#N)O[C@H](C([2H])([2H])OP(=O)(O)OP(=O)(O)OP(=O)(O)O)[C@@H](O)[C@H]2O)n2ncnc(N)c12 [Compound A198],inhibition of the activity of RdRp (in words),[6],significantly inhibit the activity of RdRp
CC(C)[C@H](N)C(=O)O[C@H]1[C@@H](O)[C@](C#N)(c2ccc3c(N)ncnn23)O[C@@H]1CO [Compound A212],inhibition at 5 µM,[1]; [9],99%
same,inhibition at 10 µM,[1]; [10],99%
same,EC50,[1]; [13],110 nM
[2H]c1cc([C@]2(C#N)O[C@H](CO)[C@@H](OC(=O)[C@@H](N)C(C)C)[C@H]2O)n2ncnc(N)c12 [Compound A213],EC50,[7],1970 nM
same,inhibition at 5 µM,[1]; [9],99%
same,EC50,[1]; [13],100 nM
same,CC50,[4],> 10000 nM
same,EC50,[5],760 nM
same,CC50,[8],> 10000 nM
[2H]C([2H])(O)[C@H]1O[C@@](C#N)(c2ccc3c(N)ncnn23)[C@H](O)[C@@H]1OC(=O)[C@@H](N)C(C)C [Compound A214],inhibition at 5 µM,[1]; [9],99%
same,EC50,[1]; [13],110 nM
[2H]c1cc([C@]2(C#N)O[C@H](C([2H])([2H])O)[C@@H](OC(=O)[C@@H](N)C(C)C)[C@H]2O)n2ncnc(N)c12 [Compound A215],inhibition at 5 µM,[1]; [9],> 98%
N#C[C@@]1(c2ccc3c(N)ncnn23)O[C@H](CO)[C@@H](O)[C@H]1O [Compound A216],EC50,[2],1920 nM
same,inhibition at 5 µM,[3],24%
CO[C@@H]1[C@H](O)[C@@H](CO)O[C@@]1(C#N)c1ccc2c(N)ncnn12 [Compound A221],EC50,[2]; [11],1350 nM
same,inhibition at 5 µM,[3],51%
"NC(=O)c1nc(F)cnc1O [Favipiravir, reference compound]",inhibition at 5 µM,[1]; [9],0%
same,inhibition at 10 µM,[1]; [10],< 20%
"CCC(CC)COC(=O)[C@H](C)N[P@](=O)(OC[C@H]1O[C@@](C#N)(c2ccc3c(N)ncnn23)[C@H](O)[C@@H]1O)Oc1ccccc1 [Remdesivir, reference compound]",EC50,[7],21 nM
same,inhibition at 5 µM,[1]; [9],65%
same,inhibition at 10 µM,[1]; [10],99%
same,EC50,[1]; [13],2000 nM
same,inhibition at 5 µM,[3],100%
same,CC50,[8],25700 nM
"NC(=O)c1ncn([C@@H]2O[C@H](CO)[C@@H](O)[C@H]2O)n1 [Ribavirin, reference compound]",DENV (Vero) value printed without unit,"[3]; column head 5 μM, no % printed",17.4

# Reference: US20240140975A1, “ANTIVIRAL APPLICATION OF NUCLEOSIDE ANALOG OR COMBINATION FORMULATION CONTAINING NUCLEOSIDE ANALOG” (priority 2020, published 2024)
